Article PMC6923382, “Small molecules that inhibit TNF signalling by stabilising an asymmetric form of the trimer” (Nature Communications, 2019)
“And” between values parts separate entries of the source, which are not always exact repeats. Equal values may be shown once. Read-outs that look alike come from different tables or passages of the source.

Tests used:
mouse TNF = target: T1, mouse TNF (Mus musculus, UniProt P06804); test: TNF L929 cytotoxicity assay, mouse TNF; assay type: cell-based; conditions: for Luminescence units: Mouse TNF, L929
T1 construct: stabilise an asymmetrical form of the soluble TNF trimer
T1 sequence (P06804 80-235 limits assumed): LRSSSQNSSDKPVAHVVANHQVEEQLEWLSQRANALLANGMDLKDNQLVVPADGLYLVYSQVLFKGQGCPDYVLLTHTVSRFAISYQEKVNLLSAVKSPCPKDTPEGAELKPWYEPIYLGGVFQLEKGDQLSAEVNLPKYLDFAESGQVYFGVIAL
Protocol: TNF (human or mouse) kills L929 cells which have been compromised by incubation with a sub-lethal concentration of actinomycin D, and this effect is inhibited with TNF biologics. Compounds were titrated in DMSO, and then pre-incubated with human or mouse TNF for 1 h. L929 cells (ECACC, #85011425) in media containing actinomycin D (2 µg/mL) were added to the TNF inhibitor mixture and incubated for 18 h. L929 cytotoxicity was measured by the addition of CellTitreGlo (Promega). Luminescence was measured after an incubation of at least 20 min in the dark. Percentage inhibition was calculated between unstimulated wells (maximum signal), and wells with TNF, DMSO and actinomycin D (minimum signal). The IC50 was calculated as the point of inflexion for a 4PL fitted curve. Mean IC50s are reported as a mean of at least two experiments. Cells were described as mycoplasma-free when purchased and were tested using Mycoalert (Lonza) after each batch of assay vial preparation.

[1] = Blood exposure of UCB-9260 in the mouse models; assay type: in vivo; conditions: for concentration at 1 h: zymosan model
[2] = 150mg/kg, CAIA model, individual mice

Q: For Cc1ccc(C)c(Cn2c(C(O)c3ccncc3)nc3ccc(-c4cnn(C)c4)cc32)c1 (centres unmarked) [UCB-9260], which Luminescence units (mouse TNF; compound -logM 4.6) is on record?
A: 12797 Luminescence units

Q: What about the Luminescence units (mouse TNF; compound -logM 5.08) of the same compound?
A: 13525 Luminescence units

Q: What about the Luminescence units (mouse TNF; compound -logM 5.56) of the same compound?
A: 13101 Luminescence units

Q: And the Luminescence units (mouse TNF; compound -logM 6.03)?
A: 12546 Luminescence units

Q: And the Luminescence units (mouse TNF; compound -logM 6.51)?
A: 10886 Luminescence units

Q: And the Luminescence units (mouse TNF; compound -logM 6.99)?
A: 9129 Luminescence units

Q: What about the Luminescence units (mouse TNF; compound -logM 7.46) of the same compound?
A: 7403 Luminescence units

Q: And the Luminescence units (mouse TNF; compound -logM 7.94)?
A: 7468 Luminescence units

Q: And the Luminescence units (mouse TNF; compound -logM 8.42)?
A: 7718 Luminescence units

Q: What about the Luminescence units (mouse TNF; compound -logM 8.9) of the same compound?
A: 5980 Luminescence units

Q: And the IC50 (mouse TNF; mouse TNF, mouse L929 cells + actinomycin D, read-out: geometric mean IC50, TNF-dependent cytotoxicity)?
A: 120 nM

Q: And the concentration at 0.5 h ([1]; 10mg/kg, human TNF neutrophilia model, individual mice, 0.5h post dose, read-out: Total exposure)?
A: 474.6 nM and 924.2 nM and 1089.9 nM

Q: What about the concentration at 0.5 h ([1]; 10mg/kg, human TNF neutrophilia model, individual mice, read-out: Free exposure) of the same compound?
A: 26.2 nM and 11.4 nM and 22.2 nM

Q: And the concentration at 0.5 h ([1]; 10mg/kg, mouse TNF neutrophilia model, individual mice, 0.5h post dose, read-out: Total exposure)?
A: 1244.4 nM and 1494.9 nM

Q: And the concentration at 0.5 h ([1]; 10mg/kg, mouse TNF neutrophilia model, individual mice, read-out: Free exposure)?
A: 29.2 nM and 29.9 nM

Q: And the concentration at 1 h ([1]; 10mg/kg, individual mice, read-out: free exposure 1h post dose)?
A: 2.5 nM and 2.4 nM and 0.6 nM and 1.0 nM and 1.8 nM and 4.0 nM and 2.1 nM and 2.3 nM

Q: And the concentration at 1 h ([1]; 10mg/kg, individual mice, read-out: total exposure 1h post dose)?
A: 102.2 nM and 99.4 nM and 24.6 nM and 40.4 nM and 74.6 nM and 166.9 nM and 86.4 nM and 96.3 nM

Q: What about the concentration at 0.5 h ([1]; 30mg/kg, human TNF neutrophilia model, individual mice, 0.5h post dose, read-out: Total exposure) of the same compound?
A: 10561.3 nM and 11259.5 nM and 3572.5 nM

Q: What about the concentration at 0.5 h ([1]; 30mg/kg, human TNF neutrophilia model, individual mice, read-out: Free exposure) of the same compound?
A: 85.7 nM and 253.5 nM and 270.2 nM

Q: And the concentration at 0.5 h ([1]; 30mg/kg, mouse TNF neutrophilia model, individual mice, 0.5h post dose, read-out: Total exposure)?
A: 7504.0 nM and 10604.5 nM

Q: What about the concentration at 0.5 h ([1]; 30mg/kg, mouse TNF neutrophilia model, individual mice, read-out: Free exposure) of the same compound?
A: 239.5 nM and 180.1 nM

Q: And the concentration at 1 h ([1]; 30mg/kg, individual mice, read-out: free exposure 1h post dose)?
A: 92.9 nM and 80.2 nM and 78.8 nM and 67.6 nM and 46.9 nM and 54.7 nM and 89.2 nM

Q: And the concentration at 1 h ([1]; 30mg/kg, individual mice, read-out: total exposure 1h post dose)?
A: 3868.9 nM and 3340.4 nM and 3284.9 nM and 2814.8 nM and 1955.1 nM and 2278.1 nM and 3715.9 nM

Q: What about the concentration at 0.5 h ([1]; 100mg/kg, human TNF neutrophilia model, individual mice, 0.5h post dose, read-out: Total exposure) of the same compound?
A: 23486.3 nM and 36904.4 nM

Q: And the concentration at 0.5 h ([1]; 100mg/kg, human TNF neutrophilia model, individual mice, read-out: Free exposure)?
A: 698.5 nM and 563.7 nM

Q: And the concentration at 0.5 h ([1]; 100mg/kg, mouse TNF neutrophilia model, individual mice, 0.5h post dose, read-out: Total exposure)?
A: 80513.8 nM and 31681.7 nM

Q: And the concentration at 0.5 h ([1]; 100mg/kg, mouse TNF neutrophilia model, individual mice, read-out: Free exposure)?
A: 760.4 nM and 1932.3 nM

Q: What about the concentration at 1 h ([1]; 100mg/kg, individual mice, read-out: free exposure 1h post dose) of the same compound?
A: 700.8 nM and 684.7 nM and 194.3 nM and 787.1 nM and 495.2 nM and 309.3 nM and 1017.0 nM and 852.7 nM

Q: What about the concentration at 1 h ([1]; 100mg/kg, individual mice, read-out: total exposure 1h post dose) of the same compound?
A: 29201.0 nM and 28529.7 nM and 8095.9 nM and 32795.2 nM and 20631.9 nM and 12886.1 nM and 42373.7 nM and 35527.1 nM

Q: And the “Cave post 1st dose (free)” value ([1]; 150 mg/kg B.I.D., CAIA model)?
A: 307 ± 74 nM

Q: What about the “Cave post 1st dose total” value ([1]; 150 mg/kg B.I.D., CAIA model) of the same compound?
A: 12,808 ± 3,070 nM

Q: And the “Free UCB-9260, 1 hour” value [1, 2]?
A: 535.0 nM and 406.9 nM and 100.9 nM and 971.5 nM and 479.3 nM

Q: What about the “Free UCB-9260, 6 hour” value [1, 2] of the same compound?
A: 368.0 nM and 6.0 nM and 50.3 nM and 428.5 nM and 99.9 nM

Q: What about the “Total UCB-9260, 1 hour” value [1, 2] of the same compound?
A: 22.292 µM and 16.9554 µM and 4.206 µM and 40.4784 µM and 19.9726 µM and 13.3543 µM

Q: And the “Total UCB-9260, 6 hour” value [1, 2]?
A: 15.3347 µM and 0.2521 µM and 2.096 µM and 17.8525 µM and 4.1624 µM and 34.4762 µM

Q: And the concentration at 0.5 h ([1]; 300mg/kg, human TNF neutrophilia model, individual mice, 0.5h post dose, read-out: Total exposure)?
A: 57489.1 nM and 49482.4 nM

Q: What about the concentration at 0.5 h ([1]; 300mg/kg, human TNF neutrophilia model, individual mice, read-out: Free exposure) of the same compound?
A: 996.6 nM and 1379.7 nM

Q: What about the concentration at 0.5 h ([1]; 300mg/kg, mouse TNF neutrophilia model, individual mice, 0.5h post dose, read-out: Total exposure) of the same compound?
A: 47166.3 nM and 48883.6 nM

Q: What about the concentration at 0.5 h ([1]; 300mg/kg, mouse TNF neutrophilia model, individual mice, read-out: Free exposure) of the same compound?
A: 1511.9 nM and 1132.0 nM

Q: And the concentration at 1 h ([1]; 300mg/kg, individual mice, read-out: free exposure 1h post dose)?
A: 551.7 nM and 816.2 nM and 450.0 nM and 187.4 nM and 584.7 nM and 1013.9 nM and 538.9 nM and 1275.4 nM

Q: What about the concentration at 1 h ([1]; 300mg/kg, individual mice, read-out: total exposure 1h post dose) of the same compound?
A: 22987.2 nM and 34009.1 nM and 18750.9 nM and 7806.7 nM and 24360.9 nM and 42244.6 nM and 22455.4 nM and 53141.6 nM

Q: What about the concentration at 0.5 h ([1]; Balb/c, mouse, blood, oral, 10 mg/kg, 10 mg/kg p.o., human TNF neutrophilia model, mean n=3 ± s.e.m., read-out: Blood concentration 0.5h post dose total) of the same compound?
A: 830 ± 184 nM

Q: And the concentration at 0.5 h ([1]; Balb/c, mouse, blood, oral, 10 mg/kg, 10 mg/kg p.o., mouse TNF neutrophilia model, Fu 2.4%, read-out: Blood concentration 0.5h post dose (free))?
A: 32 ± 2 nM

Q: What about the concentration at 0.5 h ([1]; Balb/c, mouse, blood, oral, 10 mg/kg, 10 mg/kg p.o., mouse TNF neutrophilia model, mean n=3 ± s.e.m., read-out: Blood concentration 0.5h post dose total) of the same compound?
A: 1320 nM

Q: And the concentration at 0.5 h ([1]; Balb/c, mouse, blood, oral, 10 mg/kg, mouse TNF neutrophilia model, individual mice, 0.5h post dose, read-out: Total exposure)?
A: 1220 nM

Q: What about the concentration at 0.5 h ([1]; Balb/c, mouse, blood, oral, 10 mg/kg, mouse TNF neutrophilia model, individual mice, read-out: Free exposure) of the same compound?
A: 35.9 nM

Q: What about the concentration at 0.5 h ([1]; Balb/c, mouse, blood, oral, 30 mg/kg, 30 mg/kg p.o., mouse TNF neutrophilia model, Fu 2.4%, read-out: Blood concentration 0.5h post dose (free)) of the same compound?
A: 225 ± 23 nM
